Laboratory results from PubChem BioAssay AID2060906 (Molecular Pharmacology Branch, DTP, NCI, 2025).

Test system: 485176-168-R4-J1-PDC complex spheroid growth
Experiment: Anticancer human tumor 485176-168-R4-J1-PDC patient-derived pancreatic adenocarcinoma cell line growth inhibition [RAS]
Conditions: for viability, T/C: stronger effect = lower value
Procedure, shortened: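 Multi-cell-type spheroids: tumor cells plus HUVEC endothelial cells and mesenchymal stem cells. RAS-pathway inhibitors were combined with targeted agents, each dosed in half-log steps down from clinical Cmax, or from 10 microM when Cmax was unknown.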

[1] = curve of first compound, second compound 0.000949 µM
[2] = curve of first compound, second compound 0.003 µM
[3] = curve of first compound, second compound 0.00949 µM
[4] = curve of first compound, second compound 0.03 µM
[5] = curve of first compound, second compound 0.0949 µM
[6] = curve of first compound, second compound 0.3 µM
[7] = second compound 0.000949 µM, first compound 0.0316 µM
[8] = second compound 0.000949 µM, first compound 0.1 µM
[9] = second compound 0.000949 µM, first compound 0.316 µM
[10] = second compound 0.000949 µM, first compound 1 µM
[11] = second compound 0.000949 µM, first compound 3.16 µM
[12] = second compound 0.000949 µM, first compound 10 µM
[13] = second compound 0.003 µM, first compound 0.0316 µM
[14] = second compound 0.003 µM, first compound 0.1 µM
[15] = second compound 0.003 µM, first compound 0.316 µM
[16] = second compound 0.003 µM, first compound 1 µM
[17] = second compound 0.003 µM, first compound 3.16 µM
[18] = second compound 0.003 µM, first compound 10 µM
[19] = second compound 0.00949 µM, first compound 0.0316 µM
[20] = second compound 0.00949 µM, first compound 0.1 µM
[21] = second compound 0.00949 µM, first compound 0.316 µM
[22] = second compound 0.00949 µM, first compound 1 µM
[23] = second compound 0.00949 µM, first compound 3.16 µM
[24] = second compound 0.00949 µM, first compound 10 µM
[25] = second compound 0.03 µM, first compound 0.0316 µM
[26] = second compound 0.03 µM, first compound 0.1 µM
[27] = second compound 0.03 µM, first compound 0.316 µM
[28] = second compound 0.03 µM, first compound 1 µM
[29] = second compound 0.03 µM, first compound 3.16 µM
[30] = second compound 0.03 µM, first compound 10 µM
[31] = second compound 0.0949 µM, first compound 0.0316 µM
[32] = second compound 0.0949 µM, first compound 0.1 µM
[33] = second compound 0.0949 µM, first compound 0.316 µM
[34] = second compound 0.0949 µM, first compound 1 µM
[35] = second compound 0.0949 µM, first compound 3.16 µM
[36] = second compound 0.0949 µM, first compound 10 µM
[37] = second compound 0.3 µM, first compound 0.0316 µM
[38] = second compound 0.3 µM, first compound 0.1 µM
[39] = second compound 0.3 µM, first compound 0.316 µM
[40] = second compound 0.3 µM, first compound 1 µM
[41] = second compound 0.3 µM, first compound 3.16 µM
[42] = second compound 0.3 µM, first compound 10 µM
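Note: spheroids exposed to compounds for seven days before readout.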
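Throughout, for viability, T/C: luminescence viability expressed relative to DMSO vehicle wells set as 100%.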

`CCC(CC)c1cc(NC2CCC(N)C2)n2nccc2n1` (configuration not stated) + CCn1c(-c2cc(N3CCN(C)CC3)cnc2C(C)OC)c2c3cc(ccc31)-c1csc(n1)CC(NC(=O)C1CC1C)C(=O)N1CCCC(N1)C(=O)OCC(C)(C)C2 was tested, and the IC50 [1] was 1130 nM, the IC50 [2] was 1260 nM and the IC50 [3] was 1070 nM. It also gave an IC50 [4] of 925 nM, an IC50 [5] of 1040 nM and an IC50 [6] of 1000 nM. For the same compound, the viability, T/C [7] was 92.1%, the viability, T/C [8] was 83.7% and the viability, T/C [9] was 84.7%. The viability, T/C [10] was 55.9%, the viability, T/C [11] was 1.96% and the viability, T/C [12] was 0.46%. The viability, T/C [13] was 94.5%, the viability, T/C [14] was 94.3% and the viability, T/C [15] was 100%. It also gave a viability, T/C [16] of 62.4%, a viability, T/C [17] of 1.91% and a viability, T/C [18] of 0.43%. It also gave a viability, T/C [19] of 106%, a viability, T/C [20] of 78.7% and a viability, T/C [21] of 89.1%. It also gave a viability, T/C [22] of 53.4%, a viability, T/C [23] of 1.09% and a viability, T/C [24] of 0.36%. It also gave a viability, T/C [25] of 83.6%, a viability, T/C [26] of 84.1% and a viability, T/C [27] of 82.8%. For the same compound, the viability, T/C [28] was 47.6%, the viability, T/C [29] was 1.14% and the viability, T/C [30] was 0.38%. The viability, T/C [31] was 77.5%, the viability, T/C [32] was 89% and the viability, T/C [33] was 68.5%. The viability, T/C [34] was 53%, the viability, T/C [35] was 0.88% and the viability, T/C [36] was 0.45%. The viability, T/C [37] was 81.4%, the viability, T/C [38] was 70% and the viability, T/C [39] was 71.7%. For the same compound, the viability, T/C [40] was 50.1%, the viability, T/C [41] was 0.86% and the viability, T/C [42] was 0.45%.
With `CC(Nc1ccc2c(c1)OCCn1cc(N3C(=O)OCC3C(F)F)nc1-2)C(N)=O` (configuration not stated) + CCn1c(-c2cccnc2C(C)OC)c2c3cc(ccc31)N1CCOC(CC(NC(=O)C(C(C)C)N(C)C(=O)C3(F)CCN(C(=O)C#CC(C)(C)N(C)C)CC3)C(=O)N3CCCC(N3)C(=O)OCC(C)(C)C2)C1 the IC50 [1] was 8610 nM, the IC50 [2] was 8690 nM and the IC50 [3] was 9140 nM. For the same compound, the IC50 [4] was greater than 10000 nM, the IC50 [5] was greater than 10000 nM and the IC50 [6] was 5260 nM. For the same compound, the viability, T/C [7] was 92.9%, the viability, T/C [8] was 73.4% and the viability, T/C [9] was 93.6%. It also gave a viability, T/C [10] of 77.1%, a viability, T/C [11] of 84.2% and a viability, T/C [12] of 45%. For the same compound, the viability, T/C [13] was 97.2%, the viability, T/C [14] was 86.6% and the viability, T/C [15] was 85.7%. The viability, T/C [16] was 74.5%, the viability, T/C [17] was 85.4% and the viability, T/C [18] was 45.2%. For the same compound, the viability, T/C [19] was 94.4%, the viability, T/C [20] was 79.2% and the viability, T/C [21] was 77.6%. It also gave a viability, T/C [22] of 70.9%, a viability, T/C [23] of 98.3% and a viability, T/C [24] of 47.1%. The viability, T/C [25] was 76.8%, the viability, T/C [26] was 94.1% and the viability, T/C [27] was 88.9%. The viability, T/C [28] was 73.4%, the viability, T/C [29] was 76.1% and the viability, T/C [30] was 56.5%. For the same compound, the viability, T/C [31] was 90.4%, the viability, T/C [32] was 67.9% and the viability, T/C [33] was 75.8%. It also gave a viability, T/C [34] of 51.9%, a viability, T/C [35] of 89.6% and a viability, T/C [36] of 57%. The viability, T/C [37] was 61.5%, the viability, T/C [38] was 73.4% and the viability, T/C [39] was 60.4%. For the same compound, the viability, T/C [40] was 61.5%, the viability, T/C [41] was 59.2% and the viability, T/C [42] was 39.9%.
Work on `CC1(O)CCCC1n1c(=O)c(C(F)F)cc2cnc(NC3CCN(S(C)(=O)=O)CC3)nc21` (configuration not stated) + CCn1c(-c2cc(N3CCN(C)CC3)cnc2C(C)OC)c2c3cc(ccc31)-c1csc(n1)CC(NC(=O)C1CC1C)C(=O)N1CCCC(N1)C(=O)OCC(C)(C)C2 yielded an IC50 [1] of 1460 nM, an IC50 [2] of 3440 nM and an IC50 [3] of 1720 nM. It also gave an IC50 [4] of 1660 nM, an IC50 [5] of 1390 nM and an IC50 [6] of 1510 nM. It also gave a viability, T/C [7] of 81.1%, a viability, T/C [8] of 67.5% and a viability, T/C [9] of 63%. It also gave a viability, T/C [10] of 48.1%, a viability, T/C [11] of 48.4% and a viability, T/C [12] of 2.12%. The viability, T/C [13] was 73.9%, the viability, T/C [14] was 56% and the viability, T/C [15] was 71.5%. For the same compound, the viability, T/C [16] was 59.7%, the viability, T/C [17] was 54.9% and the viability, T/C [18] was 1.93%. The viability, T/C [19] was 78.6%, the viability, T/C [20] was 68.6% and the viability, T/C [21] was 60.8%. The viability, T/C [22] was 61.5%, the viability, T/C [23] was 41.5% and the viability, T/C [24] was 1.63%. It also gave a viability, T/C [25] of 63.7%, a viability, T/C [26] of 50.4% and a viability, T/C [27] of 56.6%. It also gave a viability, T/C [28] of 56%, a viability, T/C [29] of 43.1% and a viability, T/C [30] of 1.78%. The viability, T/C [31] was 59.4%, the viability, T/C [32] was 60.9% and the viability, T/C [33] was 51.3%. For the same compound, the viability, T/C [34] was 49.4%, the viability, T/C [35] was 44.7% and the viability, T/C [36] was 2.07%. The viability, T/C [37] was 75.7%, the viability, T/C [38] was 48.5% and the viability, T/C [39] was 44%. For the same compound, the viability, T/C [40] was 58.9%, the viability, T/C [41] was 43% and the viability, T/C [42] was 1.81%.
With `C#Cc1c(F)ccc2cc(O)cc(-c3ncc4c(N5CC6CCC(C5)N6)nc(OCC56CCCN5CC(F)C6)nc4c3F)c12` (configuration not stated) the viability, T/C (compound 0.1 µM) was 102% [middle of 8 runs], the viability, T/C (compound 0.316 µM) was 97.6% [middle of 8 runs] and the viability, T/C (compound 1 µM) was 94% [middle of 8 runs]. For the same compound, the viability, T/C (compound 3.16 µM) was 99.5% [middle of 8 runs], the viability, T/C (compound 10 µM) was 95.7% [middle of 8 runs] and the IC50 (compound alone, run of 06/10/2024) was greater than 10000 nM.
